Compound: O.O=C1NC(=O)C(=O)C(=O)N1
- solubility (mole fraction) (in THF, 293.15 K): 0.046
- solubility (mole fraction) (in THF, 298.15 K): 0.0549
- solubility (mole fraction) (in THF, 303.15 K): 0.0638
- solubility (mole fraction) (in THF, 308.15 K): 0.0739
- solubility (mole fraction) (in THF, 313.15 K): 0.084
- solubility (mole fraction) (in THF, 318.15 K): 0.0954
- solubility (mole fraction) (in THF, 323.15 K): 0.107
- solubility (mole fraction) (in acetone, 293.15 K): 0.0128
- solubility (mole fraction) (in acetone, 298.15 K): 0.0132
- solubility (mole fraction) (in acetone, 303.15 K): 0.0136
- solubility (mole fraction) (in acetone, 308.15 K): 0.014
- solubility (mole fraction) (in acetone, 313.15 K): 0.0143
- solubility (mole fraction) (in acetone, 318.15 K): 0.0146
- solubility (mole fraction) (in acetone, 323.15 K): 0.015
- solubility (mole fraction) (in ethanol, 293.15 K): 0.0856
- solubility (mole fraction) (in ethanol, 298.15 K): 0.0962
- solubility (mole fraction) (in ethanol, 303.15 K): 0.107
- solubility (mole fraction) (in ethanol, 308.15 K): 0.119
- solubility (mole fraction) (in ethanol, 313.15 K): 0.131
- solubility (mole fraction) (in ethanol, 318.15 K): 0.143
- solubility (mole fraction) (in ethanol, 323.15 K): 0.155
- solubility (mole fraction) (in ethylene glycol, 293.15 K): 0.0113
- solubility (mole fraction) (in ethylene glycol, 298.15 K): 0.0143
- solubility (mole fraction) (in ethylene glycol, 303.15 K): 0.0172
- solubility (mole fraction) (in ethylene glycol, 308.15 K): 0.0206
- solubility (mole fraction) (in ethylene glycol, 313.15 K): 0.024
- solubility (mole fraction) (in ethylene glycol, 318.15 K): 0.0283
- solubility (mole fraction) (in ethylene glycol, 323.15 K): 0.0327
- solubility (mole fraction) (in methanol, 293.15 K): 0.105
- solubility (mole fraction) (in methanol, 298.15 K): 0.117
- solubility (mole fraction) (in methanol, 303.15 K): 0.129
- solubility (mole fraction) (in methanol, 308.15 K): 0.142
- solubility (mole fraction) (in methanol, 313.15 K): 0.155
- solubility (mole fraction) (in methanol, 318.15 K): 0.168
- solubility (mole fraction) (in methanol, 323.15 K): 0.181
- solubility (mole fraction) (in water, 293.15 K): 0.0377
- solubility (mole fraction) (in water, 298.15 K): 0.0403
- solubility (mole fraction) (in water, 303.15 K): 0.0429
- solubility (mole fraction) (in water, 308.15 K): 0.0456
- solubility (mole fraction) (in water, 313.15 K): 0.0482
- solubility (mole fraction) (in water, 318.15 K): 0.051
- solubility (mole fraction) (in water, 323.15 K): 0.0539
